# Reference: ChEMBL document CHEMBL5579880, “Rational Design of a Novel 6H-Benzo[c]chromen Series as Selective PI3Kα Inhibitors” (J Med Chem, 2024)
# Columns and labels:
# [1] = target: T1, Phosphatidylinositol 4,5-bisphosphate 3-kinase catalytic subunit delta isoform (Homo sapiens, UniProt O00329); assay: Inhibition of PI3Kdelta (unknown origin) incubated for 60 mins in presence of ATP by ADP-Glo reagent assay relative to control
# T1 sequence (O00329 whole entry): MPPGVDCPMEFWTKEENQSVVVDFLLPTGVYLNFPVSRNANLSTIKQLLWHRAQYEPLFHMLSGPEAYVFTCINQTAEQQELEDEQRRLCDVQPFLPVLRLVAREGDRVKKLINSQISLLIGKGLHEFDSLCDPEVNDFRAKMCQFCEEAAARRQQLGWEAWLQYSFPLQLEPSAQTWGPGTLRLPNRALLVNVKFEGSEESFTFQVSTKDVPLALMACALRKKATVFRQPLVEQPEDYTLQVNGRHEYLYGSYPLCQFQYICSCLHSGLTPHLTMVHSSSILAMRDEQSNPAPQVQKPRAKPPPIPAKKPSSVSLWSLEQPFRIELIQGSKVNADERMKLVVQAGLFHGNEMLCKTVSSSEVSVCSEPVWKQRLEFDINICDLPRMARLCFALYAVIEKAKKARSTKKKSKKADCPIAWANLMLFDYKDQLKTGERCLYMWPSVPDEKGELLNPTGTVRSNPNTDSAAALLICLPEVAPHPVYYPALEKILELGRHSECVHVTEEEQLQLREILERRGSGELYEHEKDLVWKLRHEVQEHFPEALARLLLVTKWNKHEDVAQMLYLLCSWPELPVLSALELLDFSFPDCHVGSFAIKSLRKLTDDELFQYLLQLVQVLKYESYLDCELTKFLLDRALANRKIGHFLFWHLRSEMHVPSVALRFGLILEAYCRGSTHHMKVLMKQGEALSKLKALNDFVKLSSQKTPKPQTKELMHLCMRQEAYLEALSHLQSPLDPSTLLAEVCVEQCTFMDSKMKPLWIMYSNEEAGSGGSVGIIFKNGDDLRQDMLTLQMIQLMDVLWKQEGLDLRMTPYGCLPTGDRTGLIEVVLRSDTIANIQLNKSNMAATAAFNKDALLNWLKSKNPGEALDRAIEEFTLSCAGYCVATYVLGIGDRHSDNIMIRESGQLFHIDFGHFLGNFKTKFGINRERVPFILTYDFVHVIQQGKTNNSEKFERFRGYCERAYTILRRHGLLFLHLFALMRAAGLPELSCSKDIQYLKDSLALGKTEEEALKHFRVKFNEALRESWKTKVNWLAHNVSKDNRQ
# [2] = target: Phosphatidylinositol 4,5-bisphosphate 3-kinase catalytic subunit beta isoform (Homo sapiens, UniProt P42338); assay: Inhibition of PI3Kbeta (unknown origin) incubated for 60 mins in presence of ATP by ADP-Glo reagent assay
# [3] = target: Phosphatidylinositol 4,5-bisphosphate 3-kinase catalytic subunit gamma isoform (Homo sapiens, UniProt P48736); assay: Inhibition of PI3Kgamma (unknown origin) incubated for 60 mins in presence of ATP by ADP-Glo reagent assay
# [4] = system: MCF7; assay: Induction of apoptosis in human MCF7 cells assessed as early apoptotic cells at […] incubated for 24 hrs by Annexin V-PE/7-AAD staining based flow cytometric analysis (Rvb= 1.3 %); assay type: functional; details: dose 1.1 µM
# [5] = system: MCF7; assay: Induction of apoptosis in human MCF7 cells assessed as early apoptotic cells at 3.3 uM incubated for 24 hrs by Annexin V-PE/7-AAD staining based flow cytometric analysis (Rvb= 1.3 %); assay type: functional
# [6] = system: MCF7; assay: Induction of apoptosis in human MCF7 cells assessed as early apoptotic cells at 10 uM incubated for 24 hrs by Annexin V-PE/7-AAD staining based flow cytometric analysis (Rvb= 1.3 %); assay type: functional
# [7] = system: MCF7; assay: Induction of apoptosis in human MCF7 cells assessed as late apoptotic cells at […] incubated for 24 hrs by Annexin V-PE/7-AAD staining based flow cytometric analysis (Rvb= […]); assay type: functional; details: dose 1.1 µM
# [8] = system: MCF7; assay: Induction of apoptosis in human MCF7 cells assessed as late apoptotic cells at 3.3 uM incubated for 24 hrs by Annexin V-PE/7-AAD staining based flow cytometric analysis (Rvb= […]); assay type: functional
# [9] = system: MCF7; assay: Induction of apoptosis in human MCF7 cells assessed as late apoptotic cells at 10 uM incubated for 24 hrs by Annexin V-PE/7-AAD staining based flow cytometric analysis (Rvb= […]); assay type: functional
# [10] = system: MCF7; assay: Induction of apoptosis in human MCF7 cells assessed as necrotic cells at […] incubated for 24 hrs by Annexin V-PE/7-AAD staining based flow cytometric analysis (Rvb= 0.4 %); assay type: functional; details: dose 1.1 µM
# [11] = system: MCF7; assay: Induction of apoptosis in human MCF7 cells assessed as necrotic cells at 3.3 uM incubated for 24 hrs by Annexin V-PE/7-AAD staining based flow cytometric analysis (Rvb= 0.4 %); assay type: functional
# [12] = system: MCF7; assay: Induction of apoptosis in human MCF7 cells assessed as necrotic cells at 10 uM incubated for 24 hrs by Annexin V-PE/7-AAD staining based flow cytometric analysis (Rvb= 0.4 %); assay type: functional
# [13] = system: MCF7; assay: Antitumor activity against human MCF7 cells xenografted in NCG mouse assessed as inhibition of tumor growth at 12.5 mg/kg,po administrated daily for 21 days relative to control; assay type: functional; details: MCF7, 504 h, time 21 day, read-out: TGI
# [14] = system: T47D; assay: cells; details: Homo sapiens, 168 h
# Description: Antiproliferative activity against human T47D cells assessed as inhibition of cell growth incubated for 7 days by CCK8 assay
# [15] = system: MCF7; assay: cells; details: Homo sapiens, MCF7, 168 h
# Description: Antiproliferative activity against human MCF7 cells assessed as inhibition of cell growth incubated for 7 days by CCK8 assay
# [16] = system: MCF7; assay: cells; details: Homo sapiens, MCF7, 24 h, read-out: Activity
# [17] = system: MCF7; assay: cells; details: Homo sapiens, MCF7, 24 h, read-out: Activity; remark: listed apart in the source
# [18] = system: MCF7; assay: cells; details: Homo sapiens, MCF7, 24 h, read-out: Activity; remark: listed apart in the source
# Phosphatidylinositol 4,5-bisphosphate 3-kinase catalytic subunit gamma isoform, sequence (P48736 whole entry, canonical isoform): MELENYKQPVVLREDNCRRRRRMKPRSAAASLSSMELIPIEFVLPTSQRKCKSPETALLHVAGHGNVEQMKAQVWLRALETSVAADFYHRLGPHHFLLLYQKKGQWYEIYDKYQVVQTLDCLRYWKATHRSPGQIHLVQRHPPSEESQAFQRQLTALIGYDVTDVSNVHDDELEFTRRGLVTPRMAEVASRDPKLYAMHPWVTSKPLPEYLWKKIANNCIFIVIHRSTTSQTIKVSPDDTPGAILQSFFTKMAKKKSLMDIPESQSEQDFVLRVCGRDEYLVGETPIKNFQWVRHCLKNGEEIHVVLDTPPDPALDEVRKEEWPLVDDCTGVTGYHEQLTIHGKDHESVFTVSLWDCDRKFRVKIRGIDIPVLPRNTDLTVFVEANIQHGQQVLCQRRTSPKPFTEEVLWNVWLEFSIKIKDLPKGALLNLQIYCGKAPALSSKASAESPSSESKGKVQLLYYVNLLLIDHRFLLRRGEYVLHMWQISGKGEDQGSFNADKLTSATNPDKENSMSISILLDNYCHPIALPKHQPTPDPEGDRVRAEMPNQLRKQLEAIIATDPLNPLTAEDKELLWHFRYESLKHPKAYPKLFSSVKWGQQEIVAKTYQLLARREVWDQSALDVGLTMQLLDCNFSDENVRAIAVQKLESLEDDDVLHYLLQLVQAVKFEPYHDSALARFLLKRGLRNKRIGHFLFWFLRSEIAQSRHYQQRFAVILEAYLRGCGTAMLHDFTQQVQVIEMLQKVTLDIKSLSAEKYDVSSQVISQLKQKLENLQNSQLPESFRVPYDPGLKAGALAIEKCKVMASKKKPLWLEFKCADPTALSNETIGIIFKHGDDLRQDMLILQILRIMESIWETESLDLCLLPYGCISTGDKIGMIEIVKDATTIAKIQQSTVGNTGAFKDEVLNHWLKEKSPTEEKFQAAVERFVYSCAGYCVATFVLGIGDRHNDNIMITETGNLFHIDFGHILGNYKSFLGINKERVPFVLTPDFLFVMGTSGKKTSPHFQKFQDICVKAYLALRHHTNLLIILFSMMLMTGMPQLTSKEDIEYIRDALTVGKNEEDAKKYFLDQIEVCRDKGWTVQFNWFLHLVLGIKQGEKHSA
# Phosphatidylinositol 4,5-bisphosphate 3-kinase catalytic subunit beta isoform, sequence (P42338 whole entry, canonical isoform): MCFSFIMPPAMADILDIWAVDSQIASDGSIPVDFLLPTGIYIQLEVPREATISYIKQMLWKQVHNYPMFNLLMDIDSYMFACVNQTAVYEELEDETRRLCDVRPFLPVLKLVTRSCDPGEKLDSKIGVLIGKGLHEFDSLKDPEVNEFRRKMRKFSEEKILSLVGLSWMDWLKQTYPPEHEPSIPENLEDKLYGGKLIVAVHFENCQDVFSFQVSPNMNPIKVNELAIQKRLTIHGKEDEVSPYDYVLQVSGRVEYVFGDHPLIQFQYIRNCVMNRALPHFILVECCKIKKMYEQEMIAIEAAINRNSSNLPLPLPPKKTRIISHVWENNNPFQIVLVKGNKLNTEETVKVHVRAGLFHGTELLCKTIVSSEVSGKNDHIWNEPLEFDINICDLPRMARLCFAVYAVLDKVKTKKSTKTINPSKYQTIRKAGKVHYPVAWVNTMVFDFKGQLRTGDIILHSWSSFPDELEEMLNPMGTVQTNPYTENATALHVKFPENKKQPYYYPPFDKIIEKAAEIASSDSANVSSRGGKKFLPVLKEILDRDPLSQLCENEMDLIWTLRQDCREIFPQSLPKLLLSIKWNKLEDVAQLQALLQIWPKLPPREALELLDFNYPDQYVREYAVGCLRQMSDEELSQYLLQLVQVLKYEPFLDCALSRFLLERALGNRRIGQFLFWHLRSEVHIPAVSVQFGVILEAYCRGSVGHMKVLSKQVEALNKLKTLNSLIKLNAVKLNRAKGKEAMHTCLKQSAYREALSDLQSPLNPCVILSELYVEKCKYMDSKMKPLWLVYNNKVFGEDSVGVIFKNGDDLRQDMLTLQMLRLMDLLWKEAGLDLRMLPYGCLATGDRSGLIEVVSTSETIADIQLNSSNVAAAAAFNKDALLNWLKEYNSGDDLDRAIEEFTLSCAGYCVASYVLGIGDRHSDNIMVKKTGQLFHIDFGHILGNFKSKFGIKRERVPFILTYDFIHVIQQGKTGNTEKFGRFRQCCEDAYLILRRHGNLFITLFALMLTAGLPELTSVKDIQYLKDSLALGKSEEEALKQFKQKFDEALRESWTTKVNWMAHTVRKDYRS
SMILES,IC50 [1],IC50 [2],IC50 [3],IC50 [14],IC50 [15],also measured
C[C@H](Oc1ccc2c(c1)OCc1ccc(-c3ccncc3)cc1-2)C(N)=O,0.352 µM,3.25 µM,0.94 µM,,,
C[C@H](Oc1ccc2c(c1)OCc1ccc(-c3ncnn3C)cc1-2)C(N)=O,0.933 µM,4.97 µM,5.07 µM,,,
Cc1nc(NC(=O)N2CCC[C@H]2C(N)=O)sc1-c1ccnc(C(C)(C)C(F)(F)F)c1 [ALPELISIB],,,,0.4 µM,0.6 µM,Activity [4]: 2.2%; Activity [5]: 3.9%; Activity [6]: 2.9%; Activity [7]: 12.5%; Activity [8]: 16.1%; Activity [9]: 15%; Activity [10]: 10.3%; Activity [11]: 16.3%; Activity [12]: 33.6%; inhibition in vivo at 12.5 mg/kg [13]: 88%; viability at […] [16]: 75%; viability at 3.3 µM [17]: 63.7%; viability at 10 µM [18]: 48.5%
C[C@H](Oc1ccc2c(c1)OCc1ccc(-c3cccnc3)cc1-2)C(N)=O,,,,16.6 µM,14.9 µM,
C[C@H](Oc1ccc2c(c1)OCc1ccc(-c3ccccn3)cc1-2)C(N)=O,,,,8.1 µM,13.9 µM,
CC(C)n1nccc1-c1ccc2c(c1)-c1ccc(O[C@@H](C)C(N)=O)cc1OC2,,,,24.9 µM,21.9 µM,
C[C@H](Oc1ccc2c(c1)OCc1ccc(-c3cc[nH]n3)cc1-2)C(N)=O,0.44 µM,2.67 µM,1.29 µM,,,
C[C@H](Oc1ccc2c(c1)OCc1ccc(-c3ncccn3)cc1-2)C(N)=O,1.16 µM,> 10 µM,7.09 µM,,,
C[C@H](Oc1ccc2c(c1)OCc1ccc(-c3ccn(C)n3)cc1-2)C(N)=O,,,,11.5 µM,17.2 µM,
C[C@H](Oc1ccc2c(c1)OCc1ccc(-c3ccncn3)cc1-2)C(N)=O,0.702 µM,,,,,
